Test results: paper PMC7321210, “Synthesis and Studies of the Inhibitory Effect of Hydroxylated Phenylpropanoids and Biphenols Derivatives on Tyrosinase and Laccase Enzymes” (Molecules, 2020)
“Also recorded” adds a separate entry of the source. Where two headings read alike, the source gives them in different places.

Experiments:
tyrosinase [1] = target: T1, tyrosinase (Agaricus bisporus, UniProt C7FF04); conditions: cited from earlier work; for tyrosinase inhibitory activity compared with biphenol 1: spectrophotometric and electrochemical assays
Tenebrio molitor = test: Insecticidal properties on mealworm larvae; type: in vivo; conditions: for pest or weed control at 6400 µg/mL: Tenebrio molitor, topical, 120 h, read-out: Mortality% (Mean ± SD)
Method: Late instar larvae of Tenebrio molitor from a twenty-year-old insect culture at the Research Institute on Terrestrial Ecosystems (National Research Council, Sassari, Italy) were used in the experiments. The species was reared on bran flour, with the integration of fresh vegetables, at 25 °C, 65% relative humidity and 16:8 hours light/darkness.
One hundred medium instar larvae were isolated in a petri dishes (diam. 50 mm). They were then immersed for three seconds in 2.5 mL of an acetone solution (concentration 6.4 mg/mL w:v) of one of the fourteen compounds listed in Table 3. In addition, a treatment with the commercial formulation Dimilin (WP, 25% a.i. diflubenzuron) (acetone solution, 25.6 mg/mL w:v) and a negative control (no treatment) were tested.
After treatment, the larvae were subdivided into five 20-specimen groups and reared for five days in a small PVC box (150 L × 120 W × 50 H mm) with the same feed and conditions as standard rearing. Mortality was recorded daily.
The statistical analysis was conducted with the R software (R Development Core Team 2016). Mortality data, expressed as a percentage, were arcsin(√x)-transformed to satisfy assumptions of normality. ANOVA was performed by the Duncan test for mean separation.

laccase = test: Laccase amperometric biosensor: IC50 and type of inhibition; type: biochemical; conditions: for Type of Inhibition Laccase: Lineweaver-Burk plot, biosensor exposed 30 min to twice the lowest inhibiting concentration; for VMAX, substrate + inhibitor, LAC: dopamine calibration 0-140 mM after inhibitor exposure, n=4 biosensors; for IC50: enzyme immobilized on biosensor, dopamine 50 µM, PBS pH 6.0
Method: (§1) Inhibition types and IC50 were assessed by means of carbon-based amperometric biosensors [61, 62, 63, 64, 65], that are described in the Supplementary Materials. During the experiments carried out to determine the IC50 values, the lowest inhibitory concentration of each compound was also evaluated.
(§2) To verify the inhibition types, the following protocol was used. An initial calibration with dopamine, ranging between 0 and 140 mM, was performed in order to ascertain the values of VMAX and KM. Another calibration with the same protocol was performed after having exposed the biosensors to twice the lowest inhibiting concentration of each inhibitor, in order to ensure the safe inhibition of enzymatic activity. The biosensors were exposed to the inhibitor for 30 min and after having reached a stabile baseline, a calibration with dopamine, ranging between 0 and 140 mM, was performed and the value of VMAX and KM were calculated. The variations of both VMAX and KM were then analyzed by using the Lineweaver-Burk plot in order to identify the type of inhibition induced by the tested compound. The statistical difference in VMAX and KM, before exposing the biosensors to the inhibitor and then afterwards, was calculated by means of a paired t-test (p < 0.05).
(§3) The biosensors were prepared starting from a Teflon™-insulated silver wire (30 mm in length; Ø = 125 μm),
(§4) Briefly, 1 mm of the silver wire was exposed and then introduced into a silica
(§5) capillary cylinder (10 mm in length; I.D. Ø = 180 μm, Polymicro Technologies, Phoenix, AZ, USA) partly
(§6) packed with graphite-loaded (55% w/w) epoxy resin. By mixing 850 mg of graphite with 500 mg of Araldite-
(§7) M and 200 mg of hardener, a preliminary disc electrode of carbon-composite was fabricated (Ø = 180 μm; area:
(§8) 2.5 × 10−4 cm2) by filling the silica capillary tubing with the mixture. The silver wire assured a good electrical
(§9) contact. After 24 h at 40 °C, the electrode surface was cleaned using a high-speed drill (Dremel® 300) equipped
(§10) with an aluminum oxide grinding wheel. On top of the electrode surface a 1 µl of Tyrosinase or Laccase
(§11) solution was deposited. After the complete evaporation of water at room temperature, the biosensor was
(§12) quickly dipped in the polyurethane solution in order to entrap the enzyme on the electrode surface, and after
(§13) the complete evaporation of the solvent biosensors were put to stabilize in PBS pH=6.0 overnight.
(§14) The electrochemical measurements were performed at room temperature in a classical three-electrode
(§15) electrochemical cell consisting of four biosensors as working electrodes, a reference electrode (Ag/AgCl in
(§16) Constant potential amperometry (CPA) was used for in-vitro calibrations and for inhibition evaluation
(§17) experiments by applying a constant potential of -50 mV against an Ag/AgCl reference electrode, by means of
(§18) a four-channel potentiostat (eDAQ Quadstat, e- Corder 410, eDAQ Europe, Poland) and the software Chart (v
(§19) 5.5, eDAQ Europe, Poland). Thus, once the stabilization of the baseline of biosensors was reached, increasing
(§20) volumes of a stock solution of dopamine 1 M were added in order to obtain different concentrations ranging

tyrosinase [2] = target: T1, tyrosinase; test: Tyrosinase amperometric biosensor: IC50 and type of inhibition; type: biochemical; conditions: for Type of Inhibition Tyrosinase: Lineweaver-Burk plot, biosensor exposed 30 min to twice the lowest inhibiting concentration; for VMAX, substrate + inhibitor, TYR: dopamine calibration 0-140 mM after inhibitor exposure, n=4 biosensors;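 as to all read-outs here: Carbon-composite amperometric tyrosinase biosensors with polyurethane-entrapped enzyme, calibrated in a three-electrode cell against Ag/AgCl at room temperature, before versus after inhibitor exposure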
Method: as §1, §2, §3, §4, §5, §6, §7, §8, §9, §10, §11, §12, §13, §14, §15, §16, §17, §18, §19, §20

PC12 cells [3] = test: Viability of PC12 cells (MTT assay); type: cell-based, rat; conditions: for Toxic Concentration: cell viability < 80%, screening from 1 to 40 μM, 24 h; for toxicity to cells in words: significant (p < 0.05) decrease in viability vs control, from 5 μM up to 40 μM
Method: Initially, the inhibitor concentrations on PC12 cells, i.e., a rat pheochromocytoma-derived cell line, were screened to assess the possible cytotoxicity of the molecules under study [55].
(§21) 1.4 Viability and oxidative stress assays
(§22) PC12 cells, rat pheochromocytoma-derived cell line (ATCCCRL-1721) (passages 12–25) were maintained at 37
(§23) °C humidified air containing 5% CO2/95% atmospheric air and cultured in a 60 mm plastic culture plates with
(§24) Dulbecco’s modified Eagle’s medium supplemented with 10% horse serum, 5% fetal bovine serum and 1% of
(§25) penicillin/streptomycin. PC12 cells were treated for 24 h with the different compounds at different
concentrations ranging from 1 to 40 μM, to evaluate their eventual toxicity.
(§26) For all treatments cell viability was measured by means of MTT assay, as explained in
the following paragraph [17].
(§27) At the end of the exposure time of each experiment, the cell viability was assessed by means of MTT (3-(4,5-
(§28) dimethyl-thiazol-2-yl)-2,5-diphenyltetrazoliumbromide) assay. For this purpose, 1 mg/mL of MTT was added
(§29) to each sample and incubated for 4 h at 37 °C. Only viable cells are able to convert the soluble dye MTT into
(§30) the insoluble formazan crystals. After the incubation the MTT supernatant solution was removed, the cells
(§31) were washed in phosphate-buffered saline (PBS) and centrifuged while the pellet was dissolved in 2 mL of
(§32) isopropanol. After centrifugation of the solution at 4,000 rpm for 5 min, the absorbance for each sample was
(§33) assessed by means of a Bauty Diagnostic Microplate Reader at 578 nm. All experiments were performed in 24-
(§34) well plates (1 × 10^5 cells/mL/well) and repeated in triplicate.

mushroom tyrosinase = test: Spectrophotometric (UV-Vis) detection of tyrosinase inhibitory activity; type: biochemical; conditions: for tyrosinase inhibition in words, tyrosine versus dopamine as substrate: UV-Vis, absorbance at 311 or 472 nm, Figure 3
Method: Kinetic assays were carried out by measuring the appearance of the product of either tyrosine or dopamine oxidation in the reaction medium at 311 and 472 nm, respectively, in a Shimadzu UV-2501 spectrophotometer (Shimadzu, Kyoto, Japan) equipped with the UV-Probe software, using a tandem quartz cuvette (Hellma, Milan, Italy) with a 2 × 4.375-mm path length [1, 2, 51]. Briefly, one side of the dual chamber cuvette was filled with 1000 µl of mushroom tyrosinase solution in 50 mM phosphate buffer, pH 6.8, 166 Units/mL using tyrosine as substrate or a 16.6 Units/mL when dopamine was used as substrate. The other chamber was loaded with 980 µL of substrate solution (180 µM tyrosine or 18 µM dopamine) in 20 mM phosphate buffer (pH 6.8) added of either 20 µL of DMSO (control) or 20 µL of a 2 mM (0.2 mM in dopamine experiments) solution of tested inhibitors in DMSO. A background spectrum in the 250–700 nm range was acquired with a 2.0 nm slit and fast speed before starting the reaction. Thereafter, the solutions in the two chambers were mixed by inversion and the UV-Vis spectra were acquired at increasing time intervals. Spectra were recorded at 311 or 472 nm in the presence of the inhibitor before mixing, and after either 24 or 10 min, using tyrosine or dopamine as a substrate, respectively. Data processing was performed with UV Probe and OriginPro 2019 (v. 9.60) softwares.
The mushroom tyrosinase was used as purchased without further purification. All solutions (tyrosinase, substrates and inhibitors) were filtered through a 0.45-μm syringe filter, aliquoted in Eppendorf tubes, and stored in freezer. The relative concentration was determined spectrophotometrically (εtyrosine 274.6 nm = 1420 M^−1·cm^−1; εdopamine at 280 nm = 2670 M^−1·cm^−1; εtyrosinase at 280 nm = 1426 M^−1·cm^−1).
Tyrosine was dissolved in 50 mM phosphate buffer, pH 6.8, final concentration 80 µM and with the added inhibitor (final concentration 20 µM) and tyrosinase (83 U/mL). The absorbance values were determined after 24 min of incubation. In the presence of dopamine, experiments were performed using 10-fold diluted solutions, and the absorbance values were determined after 10 min of incubation.

PC12 cells [4] = test: Protection of PC12 cells against H2O2-induced oxidative stress (MTT); type: cell-based, rat; conditions: for H2O2 Damage Protection: concentration with significant increase in viability vs H2O2, co-treatment with 100 μM H2O2, n.p.: no protection; for change of cell viability versus H2O2 alone, in words: co-treatment with 100 μM H2O2, compounds 1 up to 20 μM
Method: as §21, §22, §23, §24, §25
concentrations ranging from 1 to 40 μM, to evaluate their eventual toxicity. Then, in order to assess the
eventual compounds’ protection properties, PC12 cell treated with hydrogen peroxide (100μM) in association
with increasing concentration of the above-mentioned molecules, from 1 up to 20 μM.
as §26, §27, §28, §29, §30, §31, §32, §33, §34

[5] = larvae immersed three seconds in 2.5 mL acetone solution 6.4 mg/mL, reared five days, DFB as Dimilin WP 25% a.i., 25.6 mg/mL

T1 sequence (C7FF04 2-392): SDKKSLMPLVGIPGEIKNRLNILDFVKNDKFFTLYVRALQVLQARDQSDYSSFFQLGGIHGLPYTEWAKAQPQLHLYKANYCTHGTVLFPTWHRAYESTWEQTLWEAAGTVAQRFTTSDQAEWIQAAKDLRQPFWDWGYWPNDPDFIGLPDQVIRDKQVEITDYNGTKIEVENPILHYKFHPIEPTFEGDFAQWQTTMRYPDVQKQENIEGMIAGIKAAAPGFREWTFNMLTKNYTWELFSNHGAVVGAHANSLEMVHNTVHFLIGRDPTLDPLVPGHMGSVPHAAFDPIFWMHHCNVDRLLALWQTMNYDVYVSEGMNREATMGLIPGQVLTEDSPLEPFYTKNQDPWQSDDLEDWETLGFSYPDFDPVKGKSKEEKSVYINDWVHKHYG

Row | SMILES | tyrosinase inhibitory activity compared with biphenol 1 (tyrosinase [1]) | pest or weed control at 6400 µg/mL (Tenebrio molitor; [5]) | Type of Inhibition Laccase (laccase) | VMAX, substrate + inhibitor, LAC (laccase) | IC50 (laccase) | Type of Inhibition Tyrosinase (tyrosinase [2]) | VMAX, substrate + inhibitor, TYR (tyrosinase [2]) | Toxic Concentration (PC12 cells [3]) | toxicity to cells in words (PC12 cells [3]) | % inhibition of tyrosinase (mushroom tyrosinase; comparable with both substrates, tyrosine 80 µM, inhibitor 20 µM, 24 min, dopamine 10-fold diluted solutions, 10 min) | tyrosinase inhibition in words, tyrosine versus dopamine as substrate (mushroom tyrosinase) | pest or weed control at 6400 µg/mL (Tenebrio molitor) | H2O2 Damage Protection (PC12 cells [4]) | change of cell viability versus H2O2 alone, in words (PC12 cells [4]) | insecticidal activity in words (Tenebrio molitor; mealworm larvae, compared with DFB) | type of tyrosinase inhibition (tyrosinase [1])
1 | C=CCc1cc(-c2ccc(O)c(CC=C)c2)ccc1O [Compound 3] | higher tyrosinase inhibitory activity than that of biphenol 1 | 3 ± 2.74% |  |  |  |  |  |  |  |  |  |  |  |  |  | 
2 | COc1ccc(O)c(C(=O)/C=C/c2cc(OC)c(OC)c(-c3cc(/C=C/C(=O)c4cc(OC)ccc4O)cc(OC)c3OC)c2)c1 [Compound 16] |  |  | competitively; also recorded: competitive | 139.9±6.4 nA | 987 nM | competitively; also recorded: competitive | 22.2±0.6 nA | >5 µM | toxic to cells | about 70% |  |  |  |  |  | 
3 | COc1cc(O)cc(-c2cc(O)cc(OC)c2OC)c1OC [Compound 6] | higher tyrosinase inhibitory activity than that of biphenol 1 | 1 ± 2.24% |  |  |  |  |  |  |  |  |  |  |  |  |  | 
4 | Oc1ccc(-c2ccc(O)c(O)c2)cc1O [Compound 2] | higher tyrosinase inhibitory activity than that of biphenol 1 | 4 ± 5.48% |  |  |  |  |  |  |  |  |  |  |  |  |  | 
5 | COc1cc(C(=O)/C=C/c2cc(OC)c(OC)c(-c3cc(/C=C/C(=O)c4ccc(O)c(OC)c4)cc(OC)c3OC)c2)ccc1O [Compound 15] |  | 0% | competitively; also recorded: competitive | 93.8±2.9 nA | 209 nM | competitively; also recorded: competitive | 54.3±2.6 nA | >5 µM | toxic to cells |  | predominant inhibition of tyrosine oxidation |  |  |  |  | 
6 | O=C(NC(=O)c1c(F)cccc1F)Nc1ccc(Cl)cc1 [DFB, N-[(4-chlorophenyl)carbamoyl]-2,6-difluorobenzamide, reference compound] |  |  |  |  |  |  |  |  |  |  |  | 97 ± 4.47% |  |  |  | 
7 | CCOC(=O)/C=C/c1cc(OC)c(O)c(-c2cc(/C=C/C(=O)OCC)cc(OC)c2O)c1 [Compound 17] |  |  | competitive | 96.5±8.3 nA | 184 nM | uncompetitive or mixed; also recorded: mixed | 73.7±26 nA | none |  |  | strongly inhibited the oxidation of dopamine compared to that of tyrosine; also recorded: selectivity towards the diphenolasic phase |  | n.p. |  |  | 
8 | COc1cc(/C=C/C(=O)c2cc(OC)c(OC)c(-c3cc(C(=O)/C=C/c4ccc(O)c(OC)c4)cc(OC)c3OC)c2)ccc1O [Compound 14] |  | 0% | mixed | 110.9±2.4 nA |  | mixed | 48.8±4.67 nA | >5 µM | toxic to cells |  | predominant inhibition of tyrosine oxidation |  |  |  |  | 
9 | COc1cc(/C=C/C(=O)C[C@@H]2O[C@H](CO)[C@@H](O)[C@H](O)[C@H]2O)ccc1O [Compound 13] |  |  | competitive | 114.4±9.5 nA |  | uncompetitive or mixed; also recorded: uncompetitive | 37.3 ±4.0 nA | >20 µM |  |  | predominant inhibition of tyrosine oxidation |  | n.p. | significant decrease (p < 0.05 vs H2O2) at a concentration of 20 μM |  | 
10 | CC(C)=CCCC(C)(O)/C=C/c1cc(-c2ccc(O)c(/C=C/C(C)(O)CCC=C(C)C)c2)ccc1O (stereo not shown) [Compound 20, 3,3’-bis((E)-3-hydroxy-3,7-dimethylocta-1,6-dien-1-yl)-[1,1’-biphenyl]-4,4’-diol] |  | ~65% | competitively; also recorded: competitive | 151.6±12.1 nA | 118 nM | competitively; also recorded: competitive | 77.4±4.3 nA |  |  |  | strongly inhibited the oxidation of dopamine compared to that of tyrosine; also recorded: selectivity towards the diphenolasic phase |  |  |  | some insecticidal activity | 
11 | COc1cc(/C=C/C(=O)c2ccc(OC)c(OC)c2)ccc1O [Compound 11] |  | 4 ± 2.24% | mixed | 91.0±9.2 nA | 62 nM | competitive | 33.0±1.1 nA | >10 µM | toxic to cells |  | predominant inhibition of tyrosine oxidation |  |  |  |  | 
12 | COc1cc(C=CC(C)=O)ccc1O [Compound 8] |  | 10 ± 7.07% |  | 78.7±8.8 nA | 218 nM |  |  | 40 µM |  |  | strongly inhibited the oxidation of dopamine compared to that of tyrosine; also recorded: selectivity towards the diphenolasic phase |  | n.p. | significant decrease (p < 0.05 vs H2O2) in cells viability at all concentrations tested |  | 
13 | Oc1ccccc1-c1ccccc1O [Compound 4] |  |  |  |  |  |  |  |  |  |  |  | 3 ± 4.47% |  |  |  | 
14 | COc1cc(C(=O)/C=C/c2ccc(OC)c(OC)c2)ccc1O [Compound 12] |  | 0% | competitive | 49.5±6.1 nA | 1040 nM | noncompetitive | 63.0±1.962 nA | >1 µM | toxic to cells |  | predominant inhibition of tyrosine oxidation |  |  |  |  | 
15 | CC(=O)CCc1ccc(O)c(O)c1 [Compound 9] |  | 4 ± 6.51% | competitively; also recorded: competitive | 90.5±7.4 nA | 2240 nM | competitively; also recorded: competitive | 183.2±11.1 nA | >10 µM |  |  | strongly inhibited the oxidation of dopamine compared to that of tyrosine; also recorded: selectivity towards the diphenolasic phase |  | n.p. | significant decrease (p < 0.05 vs H2O2) at a concentration of 20 μM |  | 
16 | Oc1cccc(O)c1-c1c(O)cccc1O [Compound 5] | higher tyrosinase inhibitory activity than that of biphenol 1 | 16 ± 9.62% |  |  |  |  |  |  |  |  |  |  |  |  |  | 
17 | Oc1ccc(-c2ccc(O)cc2)cc1 [Compound 1, 4,4′-dihydroxy-biphenyl, reference compound] |  | 2 ± 2.74% |  |  |  |  |  |  |  |  | predominant inhibition of tyrosine oxidation |  |  |  |  | classical reversible competitive inhibitor
